Here are results for 28 compounds from US6908935B2, “Calcium receptor modulating agents” (Amgen Inc., priority 2002, dated 2005).

The target of this assay is T1, human parathyroid cell Ca^2+ receptor (hPCaR) (Homo sapiens, UniProt P41180).
T1 construct: expressed in transfected cells
T1 sequence (P41180 20-1078): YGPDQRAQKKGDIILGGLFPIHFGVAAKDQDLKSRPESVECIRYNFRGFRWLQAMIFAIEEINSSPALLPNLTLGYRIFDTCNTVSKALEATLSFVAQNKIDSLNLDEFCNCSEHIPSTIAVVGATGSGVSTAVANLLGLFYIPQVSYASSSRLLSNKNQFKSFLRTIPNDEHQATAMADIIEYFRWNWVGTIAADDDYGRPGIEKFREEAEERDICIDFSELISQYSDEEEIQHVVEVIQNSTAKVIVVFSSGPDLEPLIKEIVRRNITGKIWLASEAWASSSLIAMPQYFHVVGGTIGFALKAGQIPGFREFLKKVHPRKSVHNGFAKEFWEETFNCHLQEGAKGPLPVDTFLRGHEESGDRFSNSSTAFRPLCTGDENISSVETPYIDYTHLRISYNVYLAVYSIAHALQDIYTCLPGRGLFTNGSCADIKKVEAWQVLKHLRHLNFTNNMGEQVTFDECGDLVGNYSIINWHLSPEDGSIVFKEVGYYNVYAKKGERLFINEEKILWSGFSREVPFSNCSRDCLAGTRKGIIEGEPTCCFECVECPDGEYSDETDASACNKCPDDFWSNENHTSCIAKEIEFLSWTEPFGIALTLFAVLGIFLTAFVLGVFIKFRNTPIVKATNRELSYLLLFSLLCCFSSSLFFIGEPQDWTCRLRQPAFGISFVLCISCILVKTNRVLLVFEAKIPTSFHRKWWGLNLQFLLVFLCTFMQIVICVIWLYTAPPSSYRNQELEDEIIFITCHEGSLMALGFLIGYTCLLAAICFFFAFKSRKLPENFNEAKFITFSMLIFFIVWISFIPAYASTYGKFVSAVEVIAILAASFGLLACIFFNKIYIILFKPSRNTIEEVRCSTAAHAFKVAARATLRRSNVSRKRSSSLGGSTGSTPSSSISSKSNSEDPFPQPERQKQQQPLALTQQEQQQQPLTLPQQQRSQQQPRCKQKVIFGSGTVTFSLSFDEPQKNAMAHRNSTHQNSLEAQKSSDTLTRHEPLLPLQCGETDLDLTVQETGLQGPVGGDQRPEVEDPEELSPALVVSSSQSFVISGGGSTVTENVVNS
The assay can be described thus: [Ca2+]i measurement with fluo-3 in HEK 293 4.0-7 cells stably transfected with hPCaR. In kind it is cell-based. The following applies: fluo-3 fluorescence (485/530 nm), effect on [Ca^2+]i. The method, then:
The activities of the compounds of the present invention on calcium receptors were measured. In one embodiment, the measurement was performed in accordance with the method described in Example 4 of Nemeth et al., PCT/US95/13704 (International Publication No. WO96/12697) herein incorporated by reference.
A 4.0-kb NotI-HindIII fragment of the human parathyroid cell Ca^2+ receptor (hPCaR) cDNA was subcloned into the mammalian expression vector pCEP4 (Invitrogen) containing the hygromycin-resistant gene as a selectable marker. This plasmid was transfected into HEK 293 cells by calcium phosphate precipitation. Transfected cells were grown in Dulbecco's modified Eagle's medium containing 10% fetal bovine serum and hygromycin (200 μg/mL). Hygromycin-resistant colonies were subcloned and assayed for hPCaR mRNA by solution hybridization using a ^32P-labeled RNA probe complementary to the (4.0 kb) hPCaR sequence (Garrett, et al., J. Biol. Chem. 270, 12919-12925 (1995)). Clone 7 was used to assess the effects of compounds on [Ca^2+]i. This stably transfected cell line is termed HEK 293 4.0-7. For measurements of [Ca^2+]i, the cells were recovered from tissue culture flasks by brief treatment with 0.02% EDTA and then washed and resuspended in PCB containing 1 mM CaCl2 and 0.1% Bovine Serum Albumin (“BSA”). The cells were loaded with fluo-3 by incubation for 30 min at 37° C., with parathyroid cell buffer (126 mM NaCl, 4 mM KCl, 1 mM MgSO4, 0.7 mM K2HPO/KH2PO4, 20 mM HEPES.NaOH (pH 7.45)) containing 0.5% BSA in lmM CaCl2 and 2 μM fluo-3 acetoxymethyl ester. The cells were subsequently washed, each test compound was added to the cells and the fluorescence was recorded by using excitation and emission wavelengths of 485 and 530 nm, respectively.

Bounds are passed on as bounds.

Usually EC50 stands for the concentration needed to bring the measured effect to its halfway point. Low values mean an effect from little substance, high ones a need for much substance. As for `COc1cccc([C@@H](C)NCc2ccc(OC)c(-c3ccsc3)c2)c1` [(1R)-1-(3-(methyloxy)phenyl)-N-((4-(methyloxy)-3-(3-thienyl)phenyl)methyl)ethanamine], the 50% effective concentration (EC50) was no more than 10 µM.

As to `COc1cccc([C@@H](C)NCc2cccc(-c3cncc(C(N)=O)c3)c2)c1` [5-(3-((((1R)-1-(3-(methyloxy)phenyl)ethyl)amino)methyl)phenyl)-3-pyridinecarboxamide], the EC50 was no more than 10 µM. The result for `COc1ccc(CN[C@H](C)c2cccc3ccccc23)cc1-c1ccc2c(c1)CCO2` [(1R)-N-((3-(2,3-dihydro-1-benzofuran-5-yl)-4-(methyloxy)phenyl)methyl)-1-(1-naphthalenyl)ethanamine] reads no more than 10 µM.

The compound `COc1ccc(CN[C@H](C)c2cccc(F)c2)cc1-c1ccc(C(F)(F)F)cc1` [(1R)-1-(3-fluorophenyl)-N-((6-(methyloxy)-4′-(trifluoromethyl)-1,1′-biphenyl-3-yl)methyl)ethanamine] yielded an EC50 of no more than 10 µM. The result for `C[C@@H](NCc1cccc(-c2ccoc2)c1)c1cccc2ccccc12` [Example 225, (1R)-N-((3-(3-furanyl)phenyl)methyl)-1-(1-naphthalenyl)ethanamine] reads no more than 10 µM; that for `COc1ccc(CN[C@H](C)c2ccccc2)cc1-c1ccc2c(ccn2CC2CC2)c1` [(1R)-N-((3-(1-(cyclopropylmethyl)-1H-indol-5-yl)-4-(methyloxy)phenyl)methyl)-1-phenylethanamine], no more than 10 µM; that for `COc1cccc([C@@H](C)NCc2ccc(OC)c(-c3cccc(C(N)=O)c3)c2)c1` [2′-(methyloxy)-5′-((((1R)-1-(3-(methyloxy)phenyl)ethyl)amino)methyl)-1,1′-biphenyl-3-carboxamide], no more than 10 µM. With `COc1ccc(CN[C@H](C)c2ccccc2)cc1-c1ccc(OC(F)(F)F)cc1` [(1R)-N-((6-(methyloxy)-4′-((trifluoromethyl)oxy)-1,1′-biphenyl-3-yl)methyl)-1-phenylethanamine], the half-maximal effective concentration (EC50) was no more than 10 µM. `COc1ccc(-c2cc(CN[C@H](C)c3ccccc3)ccc2OC)nc1` [(1R)-N-((4-(methyloxy)-3-(5-(methyloxy)-2-pyridinyl)phenyl)methyl)-1-phenylethanamine]: the EC50 is no more than 10 µM. Then `COc1ccc(CN[C@H](C)c2cccc(Cl)c2)cc1-c1ccc(C(F)(F)F)cc1` [(1R)-1-(3-chlorophenyl)-N-((6-(methyloxy)-4′-(trifluoromethyl)-1,1′-biphenyl-3-yl)methyl)ethanamine], with no more than 10 µM; and `COc1cccc([C@@H](C)NCc2ccc(OC)c(-c3ccc(C(F)(F)F)nc3)c2)c1` [(1R)-1-(3-(methyloxy)phenyl)-N-((4-(methyloxy)-3-(6-(trifluoromethyl)-3-pyridinyl)phenyl)methyl)ethanamine], with no more than 10 µM; and `COc1cccc([C@@H](C)NCc2ccc(OC)c(-c3ccc4ncccc4c3)c2)c1` [(1R)-1-(3-(methyloxy)phenyl)-N-((4-(methyloxy)-3-(6-quinolinyl)phenyl)methyl)ethanamine], with no more than 10 µM.

In turn, `COc1ccc(CN[C@H](C)c2ccccc2)cc1-c1ccc2c(ccn2CC(N)=O)c1` [2-(5-(2-(methyloxy)-5-((((1R)-1-phenylethyl)amino)methyl)phenyl)-1H-indol-1-yl)acetamide] came in with an EC50 of no more than 10 µM. Then `COc1ccc(CN[C@H](C)c2cccc3ccccc23)cc1-c1cccc(C(=O)O)c1` [2′-(methyloxy)-5′-((((1R)-1-(1-naphthalenyl)ethyl)amino)methyl)-1,1′-biphenyl-3-carboxylic acid], with no more than 10 µM. The compound `C[C@@H](NCc1ccc(OC(F)F)c(-c2cccnc2)c1)c1ccccc1` [(1R)-N-((4-((difluoromethyl)oxy)-3-(3-pyridinyl)phenyl)methyl)-1-phenylethanamine] displayed an EC50 of no more than 10 µM. The result for `CCNC(=O)Nc1ccc(CN[C@H](C)c2cccc(OC)c2)cc1-c1ccc(OC)cc1` [N-ethyl-N′-(4′-(methyloxy)-5-((((1R)-1-(3-(methyloxy)phenyl)ethyl)amino)methyl)-1,1′-biphenyl-2-yl)urea] reads no more than 10 µM. With `C[C@@H](NCc1ccc(Cl)c(-c2ccc(OC(F)(F)F)cc2)c1)c1ccccc1` [(1R)-N-((6-chloro-4′-((trifluoromethyl)oxy)-1,1′-biphenyl-3-yl)methyl)-1-phenylethanamine], the concentration giving a half-maximal response (EC50) was no more than 10 µM.

Compound `COCC(=O)N1CCC(c2cc(CN[C@H](C)c3cccc4ccccc34)ccc2OC)CC1` [(1R)-N-((4-(methyloxy)-3-(1-((methyloxy)acetyl)-4-piperidinyl)phenyl)methyl)-1-(1-naphthalenyl)ethanamine] had an EC50 of no more than 10 µM. The result for `COc1ccc(-c2cccc(CN[C@H](C)c3cccc4ccccc34)c2)nn1` [(1R)-N-((3-(6-(methyloxy)-3-pyridazinyl)phenyl)methyl)-1-(1-naphthalenyl)ethanamine] reads no more than 10 µM; that for `COc1ccc(CN[C@H](C)c2ccccc2)cc1-c1nnc(C(F)(F)F)o1` [(1R)-N-((4-(methyloxy)-3-(5-(trifluoromethyl)-1,3,4-oxadiazol-2-yl)phenyl)methyl)-1-phenylethanamine], no more than 10 µM; that for `COc1cccc([C@@H](C)NCc2cccc(-c3ccc(C)nc3)c2)c1` [(1R)-1-(3-(methyloxy)phenyl)-N-((3-(6-methyl-3yridinyl)phenyl)methyl)ethanamine], no more than 10 µM. `COc1ccc(-c2cc(CN[C@H](C)c3ccc(OC)cc3)ccc2F)cc1` [(1R)-N-((6-fluoro-4′-(methyloxy)-1,1′-biphenyl-3-yl)methyl)-1-(4-(methyloxy)phenyl)ethanamine] came in with a half-maximal effective concentration (EC50) of no more than 10 µM. The result for `C[C@@H](NCc1ccc(F)c(-c2ccc(C(F)(F)F)cc2)c1)c1ccccc1` [(1R)-N-((6-fluoro-4′-(trifluoromethyl)-1,1′-biphenyl-3-yl)methyl)-1-phenylethanamine] reads no more than 10 µM; that for `COc1cccc([C@@H](C)NCc2ccc(OC)c(-c3ccc(=O)n(C)c3)c2)c1` [1-methyl-5-(2-(methyloxy)-5-((((1R)-1-(3-(methyloxy)phenyl)ethyl)amino)methyl)phenyl)-2(1H)-pyridinone], no more than 10 µM. The result for `COc1ccc(CN[C@H](C)c2cccc3ccccc23)cc1-c1nccs1` [(1R)-N-((4-(methyloxy)-3-(1,3-thiazol-2-yl)phenyl)methyl)-1-(1-naphthalenyl)ethanamine] reads no more than 10 µM; that for `COc1ccc(CN[C@H](C)c2cccc3ccccc23)cc1-c1cccc(OC(F)(F)F)c1` [(1R)-N-((6-(methyloxy)-3′-((trifluoromethyl)oxy)-1,1′-biphenyl-3-yl)methyl)-1-(1-naphthalenyl)ethanamine], no more than 10 µM; that for `CCOC(=O)N1CCC(c2cc(CN[C@H](C)c3ccccc3)ccc2OC)CC1` [ethyl 4-(2-(methyloxy)-5-((((1R)-1-phenylethyl)amino)methyl)phenyl)-1-piperidinecarboxylate], no more than 10 µM. Then `COc1ccc(CN[C@H](C)c2cccc3ccccc23)cc1-c1ccc2nccnc2c1` [(1R)-N-((4-(methyloxy)-3-(6-quinoxalinyl)phenyl)methyl)-1-(1-naphthalenyl)ethanamine], with no more than 10 µM.
